Article PMC12518996 (Frontiers in Pharmacology, 2025)

What was measured:
Format in all cases: in vitro ADME
[1] = molecular target: T1, CYP2C8 (Homo sapiens, UniProt P10632); experiment: Metabolite formation by recombinant human CYP2C8; settings: trazodone 4 μM; NADPH; 37 °C, 40 min
T1 sequence (P10632 1-490): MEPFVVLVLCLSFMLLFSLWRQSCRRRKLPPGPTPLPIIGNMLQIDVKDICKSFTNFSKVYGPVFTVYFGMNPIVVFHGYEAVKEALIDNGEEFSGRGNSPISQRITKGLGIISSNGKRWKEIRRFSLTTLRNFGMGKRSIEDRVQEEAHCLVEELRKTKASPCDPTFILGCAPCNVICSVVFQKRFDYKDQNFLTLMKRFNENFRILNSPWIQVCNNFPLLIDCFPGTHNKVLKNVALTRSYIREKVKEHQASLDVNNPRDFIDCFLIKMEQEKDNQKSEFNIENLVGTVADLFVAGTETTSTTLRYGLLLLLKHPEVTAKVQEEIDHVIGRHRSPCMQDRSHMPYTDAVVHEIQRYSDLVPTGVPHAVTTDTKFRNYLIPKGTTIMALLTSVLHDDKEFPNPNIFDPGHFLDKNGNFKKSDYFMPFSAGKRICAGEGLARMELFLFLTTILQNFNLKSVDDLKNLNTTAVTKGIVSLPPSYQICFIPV
Description: (§1) To confirm the role of individual CYP isoforms in metabolizing trazodone, recombinant human and rat CYP enzymes were employed in separate incubations. […] Each reaction was terminated with acetonitrile, centrifuged, and the supernatant was analyzed by identical UHPLC-Orbitrap setup outlined in §2.2, allowing direct comparison of metabolite spectra across all in-vitro systems. […] This procedure helped confirm the contributions of individual isoforms to specific biotransformation reactions.

[2] = molecular target: T2, CYP3A9 (Rattus norvegicus, UniProt P51538); experiment: Metabolite formation by recombinant rat CYP3A9; settings: trazodone 4 μM; NADPH; 37 °C, 40 min
T2 sequence (P51538 1-503): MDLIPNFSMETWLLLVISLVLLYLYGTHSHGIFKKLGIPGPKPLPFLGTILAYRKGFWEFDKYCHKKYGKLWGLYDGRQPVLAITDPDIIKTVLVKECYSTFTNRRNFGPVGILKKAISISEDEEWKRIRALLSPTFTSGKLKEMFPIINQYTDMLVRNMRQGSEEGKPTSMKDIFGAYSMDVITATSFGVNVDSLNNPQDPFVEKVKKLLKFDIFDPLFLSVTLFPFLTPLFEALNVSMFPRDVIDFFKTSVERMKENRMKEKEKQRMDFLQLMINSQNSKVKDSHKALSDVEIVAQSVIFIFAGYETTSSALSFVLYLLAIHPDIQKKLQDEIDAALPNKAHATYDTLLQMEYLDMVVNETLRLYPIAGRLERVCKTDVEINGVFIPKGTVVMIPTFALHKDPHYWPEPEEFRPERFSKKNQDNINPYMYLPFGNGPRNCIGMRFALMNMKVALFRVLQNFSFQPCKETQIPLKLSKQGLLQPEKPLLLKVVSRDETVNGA
Description: (§2) Each reaction was terminated with acetonitrile, centrifuged, and the supernatant was analyzed by identical UHPLC-Orbitrap setup outlined in §2.2, allowing direct comparison of metabolite spectra across all in-vitro systems.

[3] = molecular target: CYP3A4 (Homo sapiens, UniProt P08684); experiment: Metabolite formation by recombinant human CYP3A4; settings: trazodone 4 μM; NADPH; 37 °C, 40 min
CYP3A4, sequence (P08684 whole entry): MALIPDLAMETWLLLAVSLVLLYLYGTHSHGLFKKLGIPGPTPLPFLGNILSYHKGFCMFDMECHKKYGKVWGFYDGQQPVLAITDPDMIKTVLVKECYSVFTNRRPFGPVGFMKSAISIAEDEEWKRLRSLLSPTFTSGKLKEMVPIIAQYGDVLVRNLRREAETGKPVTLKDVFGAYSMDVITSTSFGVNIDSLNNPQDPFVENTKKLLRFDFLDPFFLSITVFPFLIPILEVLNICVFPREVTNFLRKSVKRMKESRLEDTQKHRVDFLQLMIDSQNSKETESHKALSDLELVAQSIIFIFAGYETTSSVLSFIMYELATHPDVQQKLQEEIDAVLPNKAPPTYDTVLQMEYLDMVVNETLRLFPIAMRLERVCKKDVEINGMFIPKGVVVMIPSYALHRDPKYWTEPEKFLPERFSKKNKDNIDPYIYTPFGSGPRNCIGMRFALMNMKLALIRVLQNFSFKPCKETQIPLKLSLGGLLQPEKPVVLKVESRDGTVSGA
Description: as §2

[4] = molecular target: CYP2C19 (Homo sapiens, UniProt P33261); experiment: Metabolite formation by recombinant human CYP2C19; settings: trazodone 4 μM; NADPH; 37 °C, 40 min
CYP2C19, sequence (P33261 whole entry): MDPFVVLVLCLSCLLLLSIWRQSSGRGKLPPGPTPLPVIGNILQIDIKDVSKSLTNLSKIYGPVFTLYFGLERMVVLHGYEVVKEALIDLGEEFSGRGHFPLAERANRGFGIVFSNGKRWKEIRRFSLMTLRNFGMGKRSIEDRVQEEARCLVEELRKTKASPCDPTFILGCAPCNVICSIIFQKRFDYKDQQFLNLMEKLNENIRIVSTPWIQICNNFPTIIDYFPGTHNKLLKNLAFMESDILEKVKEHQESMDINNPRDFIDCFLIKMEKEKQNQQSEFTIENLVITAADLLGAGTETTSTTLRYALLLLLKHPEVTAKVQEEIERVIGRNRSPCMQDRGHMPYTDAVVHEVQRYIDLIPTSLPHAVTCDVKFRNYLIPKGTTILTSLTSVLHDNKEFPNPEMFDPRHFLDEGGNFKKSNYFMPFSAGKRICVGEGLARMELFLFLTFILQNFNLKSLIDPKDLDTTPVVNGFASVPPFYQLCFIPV
Description: as §1

[5] = molecular target: T3, AOX (Homo sapiens, UniProt Q06278); experiment: Metabolite formation by recombinant human AOX; settings: trazodone 4 μM; 37 °C, 40 min
T3 sequence (Q06278 1-1338): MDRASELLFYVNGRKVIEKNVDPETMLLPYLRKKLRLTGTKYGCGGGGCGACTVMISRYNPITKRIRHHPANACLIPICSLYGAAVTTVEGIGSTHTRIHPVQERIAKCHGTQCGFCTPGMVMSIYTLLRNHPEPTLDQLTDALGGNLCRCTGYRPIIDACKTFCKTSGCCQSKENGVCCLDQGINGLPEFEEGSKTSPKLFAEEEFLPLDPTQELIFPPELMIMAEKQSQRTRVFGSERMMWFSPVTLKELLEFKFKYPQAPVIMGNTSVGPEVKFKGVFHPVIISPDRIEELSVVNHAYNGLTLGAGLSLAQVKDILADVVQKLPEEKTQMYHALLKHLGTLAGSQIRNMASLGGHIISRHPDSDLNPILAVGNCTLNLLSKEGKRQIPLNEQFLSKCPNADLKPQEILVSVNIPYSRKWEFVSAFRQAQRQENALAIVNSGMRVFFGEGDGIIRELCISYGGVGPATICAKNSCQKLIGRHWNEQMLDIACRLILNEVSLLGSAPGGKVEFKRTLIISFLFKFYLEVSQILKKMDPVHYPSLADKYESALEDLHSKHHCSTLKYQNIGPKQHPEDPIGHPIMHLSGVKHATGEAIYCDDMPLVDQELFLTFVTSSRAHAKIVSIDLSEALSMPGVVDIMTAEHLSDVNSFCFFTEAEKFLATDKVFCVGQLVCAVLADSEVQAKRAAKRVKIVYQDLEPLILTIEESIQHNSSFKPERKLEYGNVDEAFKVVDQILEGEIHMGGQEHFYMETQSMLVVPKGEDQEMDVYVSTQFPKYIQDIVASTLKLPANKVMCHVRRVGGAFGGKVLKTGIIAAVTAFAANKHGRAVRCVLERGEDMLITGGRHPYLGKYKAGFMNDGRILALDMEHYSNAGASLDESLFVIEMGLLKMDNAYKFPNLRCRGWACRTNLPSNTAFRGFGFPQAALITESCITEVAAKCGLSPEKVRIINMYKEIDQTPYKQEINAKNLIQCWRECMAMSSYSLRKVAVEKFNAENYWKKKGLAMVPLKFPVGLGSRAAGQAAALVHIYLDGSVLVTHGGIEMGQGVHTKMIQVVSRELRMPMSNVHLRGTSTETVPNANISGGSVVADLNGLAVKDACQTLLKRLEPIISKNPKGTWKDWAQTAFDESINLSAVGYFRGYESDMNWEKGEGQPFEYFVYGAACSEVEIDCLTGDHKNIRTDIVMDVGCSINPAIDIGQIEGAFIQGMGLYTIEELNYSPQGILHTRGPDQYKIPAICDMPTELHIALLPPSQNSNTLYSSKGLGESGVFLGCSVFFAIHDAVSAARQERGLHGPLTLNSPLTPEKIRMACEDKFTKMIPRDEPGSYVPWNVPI

Compound | Formation of trazodone phase I metabolite by recombinant human CYP2C8 (as LC/MS peak areas) [1] | Formation of trazodone phase I metabolite by recombinant rat CYP3A9 (as LC/MS peak areas) [2] | Formation of trazodone phase I metabolite by recombinant human CYP3A4 (as LC/MS peak areas) [3] | Formation of trazodone phase I metabolite by recombinant human CYP2C19 (as LC/MS peak areas) [4] | Formation of trazodone phase I metabolite by recombinant human AOX (as LC/MS peak areas) [5]
O=c1n(CCCN2CCNCC2)nc2ccccn12 [Metabolite M15] | 26 | 719 | 6716 | 180 | 0
Clc1cccc(N2CCNCC2)c1 [mCPP, m-chlorophenylpiperazine] | 327 | 18577 | 32991 | 189 | 106
O=c1n(CCCO)nc2ccccn12 [Metabolite M20] | 0 | 1080 | 236 | 0 | 0
